Measurements as given in US5859257A, “Isoxazole compounds as cyclooxygenase inhibitors” (G. D. Searle & Co., priority 1996, dated 1999).

How the values were obtained:
[1] = molecular target: COX-2; assay: Evaluation of COX-2 activity in vitro (PGE2 ELISA, recombinant enzyme); assay type: biochemical, human or murine; details: arachidonic acid 10 μM, pH 8.0, pre-incubation 10-20 minutes
Method: The COX-2 inhibition activity of the compounds of this invention illustrated in the Examples was determined by the following methods.
(§1) a. Preparation of recombinant COX baculoviruses
(§2) Recombinant COX-1 and COX-2 were prepared as scribed by Gierse et al, [J. Biochem., 305, 479-84 (1995)]. […] Recombinant baculoviruses were isolated by transfecting 4 μg of baculovirus transfer vector DNA into SF9 insect cells (2×10^8) along with 200 ng of linearized baculovirus plasmid DNA by the calcium phosphate method. See M. D. Summers and G. E. Smith, A Manual of Methods for Baculovirus Vectors and Insect Cell Culture Procedures, Texas Agric. Exp. Station Bull. 1555 (1987). Recombinant viruses were purified by three rounds of plaque purification and high titer (10^7 -10^8 pfu/mL) stocks of virus were prepared. For large scale production, SF9 insect cells were infected in 10 liter fermentors (0.5×10^6 /mL) with the recombinant baculovirus stock such that the multiplicity of infection was 0.1. After 72 hours the cells were centrifuged and the cell pellet homogenized in Tris/Sucrose (50 mM: 25%, pH 8.0) containing 1% 3-[(3-cholamidopropyl)dimethylammonio]-1-propanesulfonate (CHAPS). The nomogenate was centrifuged at 10,000×G for 30 minutes, and the resultant supernatant was stored at -80° C. before being assayed for COX activity.
(§3) COX activity was assayed as PGE2 formed/μg protein/time using an ELISA to detect the prostaglandin released. CHAPS-solubilized insect cell membranes containing the appropriate COX enzyme were incubated in a potassium phosphate buffer (50 mM, pH 8.0) containing epinephrine, phenol, and heme with the addition of arachidonic acid (10 μM). […] Any reaction between the arachidonic acid and the enzyme was stopped after ten minutes at 37° C./room temperature by transferring 40 μl of reaction mix into 160 μl ELISA buffer and 25 μM indomethacin. The PGE2 formed was measured by standard ELISA technology (Cayman Chemical).

[2] = molecular target: COX-1; assay: Evaluation of COX-1 activity in vitro (PGE2 ELISA, recombinant enzyme); assay type: biochemical, human or murine; details: arachidonic acid 10 μM, pH 8.0, pre-incubation 10-20 minutes
Method: as §1, §2, §3

| IC50 [1] | IC50 [2] | SMILES |
| --- | --- | --- |
| < 0.1 µM | 17.4 µM | CCc1onc(-c2ccccc2)c1-c1ccc(S(N)(=O)=O)cc1 [Example 1a, 4-[5-ethyl-3-phenylisoxazol-4-yl]benzenesulfonamide] |
| < 0.1 µM | 13.2 µM | CCCc1onc(-c2ccccc2)c1-c1ccc(S(N)(=O)=O)cc1 [Example 1b, 4-[5-propyl-3-phenylisoxazol-4-yl]benzenesulfonamide] |
| < 0.1 µM | 6.2 µM | CC(C)c1onc(-c2ccccc2)c1-c1ccc(S(N)(=O)=O)cc1 [Example 1c, 4-[5-isopropyl-3-phenylisoxazol-4-yl]benzenesulfonamide] |
| < 0.1 µM | 25.8 µM | CCCCc1onc(-c2ccccc2)c1-c1ccc(S(N)(=O)=O)cc1 [Example 1d, 4-[5-butyl-3-phenylisoxazol-4-yl]benzenesulfonamide] |
| < 0.1 µM | 37.7 µM | CC(C)Cc1onc(-c2ccccc2)c1-c1ccc(S(N)(=O)=O)cc1 [Example 1e, 4-[5-isobutyl-3-phenylisoxazol-4-yl]benzenesulfonamide] |
|  | 54 µM | NS(=O)(=O)c1ccc(-c2c(-c3ccccc3)noc2C2CCCCC2)cc1 [Example 1f, 4-[5-cyclohexyl-3-phenylisoxazol-4-yl]benzenesulfonamide] |
| < 0.1 µM | > 100 µM | CC(C)(C)Cc1onc(-c2ccccc2)c1-c1ccc(S(N)(=O)=O)cc1 [Example 1g, 4-[5-neopentyl-3-phenylisoxazol-4-yl]benzenesulfonamide] |
| < 0.1 µM | 4.7 µM | NS(=O)(=O)c1ccc(-c2c(-c3ccccc3)noc2CC2CCCCC2)cc1 [Example 1h, 4-[5-cyclohexylmethyl-3-phenylisoxazol-4-yl]benzenesulfonamide] |
| < 0.1 µM | 8.6 µM | NS(=O)(=O)c1ccc(-c2c(-c3ccccc3)noc2Cc2ccc(Cl)cc2)cc1 [Example 1i, 4-[5-(4-chlorophenyl)methyl-3-phenylisoxazol-4-yl]benzenesulfonamide] |
| < 0.1 µM | 50.7 µM | NS(=O)(=O)c1ccc(-c2c(-c3ccccc3)noc2CCl)cc1 [Example 1k, 4-[5-chloromethyl-3-phenylisoxazol-4-yl]benzenesulfonamide] |
| 1.5 µM | > 100 µM | Cc1onc(-c2ccccc2)c1-c1ccc(S(=O)(=O)O)cc1 [Example 1l, 4-[5-methyl-3-phenylisoxazol-4-yl]benzenesulfonic acid] |
| 51 µM | > 100 µM | CCCc1onc(-c2ccccc2)c1-c1ccc(S(=O)(=O)O)cc1 [Example 1m, 4-[5-propyl-3-phenylisoxazol-4-yl]benzenesulfonic acid] |
| < 0.1 µM | > 100 µM | COCc1onc(-c2ccccc2)c1-c1ccc(S(N)(=O)=O)cc1 [Example 1n, 4-[5-methoxymethyl-3-phenylisoxazol-4-yl]benzenesulfonamide] |
|  | > 100 µM | NS(=O)(=O)c1ccc(-c2c(-c3ccccc3)noc2CC(=O)O)cc1 [Example 9, [4-[4-(Aminosulfonyl)phenyl]-3-phenylisoxazol-5-yl]acetic acid] |
| 35 µM |  | NS(=O)(=O)c1ccc(-c2c(-c3ccccc3)noc2C(=O)O)cc1 [Example 11, [4-[4-(Aminosulfonyl)phenyl]-3-phenylisoxazol-5-yl]carboxylic acid] |
|  | 6.4 µM | Cc1noc(-c2ccccc2)c1-c1ccc(S(N)(=O)=O)cc1 [Example 13, 4-[3-Methyl-5-phenylisoxazol-4-yl]benzenesulfonamide] |
|  | > 100 µM | CCc1noc(-c2ccccc2)c1-c1ccc(S(C)(=O)=O)cc1 [Example 29, 3-Ethyl-4-(4-methylsulfonylphenyl)-5-phenylisoxazole] |
|  | 76 µM | CCc1noc(-c2cccc(C)c2)c1-c1ccc(S(N)(=O)=O)cc1 [Example 32, 4-[3-Ethyl-5-(3-methylphenyl)isoxazol-4-yl]benzenesulfonamide] |
|  | > 100 µM | Cc1onc(-c2ccc(F)c(F)c2)c1-c1ccc(S(N)(=O)=O)cc1 [Example 49, 4-[3-(3,4-Difluorophenyl)-5-methylisoxazol-4-yl]benzenesulfonamide] |
